Read-outs that look alike come from different tables or passages of the source.
What was measured:
MDCK cells = assay: MDCK cell viability (calcein acetoxymethyl ester); type: cell-based; settings: 24 h
Description: MDCK (immortalized, epithelial-kidney, ATCC: CCL 34) cells were cultured in DMEM containing FBS (10%), penicillin (100 U/mL) and streptomycin (100 μg/mL), in 25 cm^2 sterile plastic flasks (VWR) and in 24-well sterile plastic plates (VWR). In order to test the effect of CIT on cell viability in absence and presence of albumin, cell media with and without 10% FBS or 40 g/L HSA were also prepared. After 24-h treatment of MDCK cells (in 24-well plates) with CIT (0–100 μM) in absence and presence of FBS (10%) or HSA (40 g/L), cells were washed three times with 500 μL PBS. Then PBS was replaced with 500 µL Hanks + glucose buffer containing 1.6 µM calcein acetoxymethyl ester and cells were incubated for 40 min at 37 °C in the dark. Thereafter, wells were washed again with 500 μL ice-cold PBS and the emptied wells were filled with 500 μL of 5% perchloric acid (PCA) after which cells were incubated for 15 min at room temperature. 20 μL PCA extract was added to 180 μL of 1 M NaOH using black 96-well optical plates (VWR) for fluorescence measurement of the formed calcein (λexc = 490 nm, λem = 520 nm). Fluorescence intensities were measured with a microplate reader (Perkin Elmer EnSpire Multimode reader).

[1] = biological target: T1, human serum albumin (HSA) (Homo sapiens, UniProt P02768); assay: Fluorescence polarization displacement of OTA from HSA; type: binding; design: purchased Sigma-Aldrich; settings: OTA 1 μM, HSA 1.4 μM, competitor 1–30 μM
T1 sequence (P02768 25-609): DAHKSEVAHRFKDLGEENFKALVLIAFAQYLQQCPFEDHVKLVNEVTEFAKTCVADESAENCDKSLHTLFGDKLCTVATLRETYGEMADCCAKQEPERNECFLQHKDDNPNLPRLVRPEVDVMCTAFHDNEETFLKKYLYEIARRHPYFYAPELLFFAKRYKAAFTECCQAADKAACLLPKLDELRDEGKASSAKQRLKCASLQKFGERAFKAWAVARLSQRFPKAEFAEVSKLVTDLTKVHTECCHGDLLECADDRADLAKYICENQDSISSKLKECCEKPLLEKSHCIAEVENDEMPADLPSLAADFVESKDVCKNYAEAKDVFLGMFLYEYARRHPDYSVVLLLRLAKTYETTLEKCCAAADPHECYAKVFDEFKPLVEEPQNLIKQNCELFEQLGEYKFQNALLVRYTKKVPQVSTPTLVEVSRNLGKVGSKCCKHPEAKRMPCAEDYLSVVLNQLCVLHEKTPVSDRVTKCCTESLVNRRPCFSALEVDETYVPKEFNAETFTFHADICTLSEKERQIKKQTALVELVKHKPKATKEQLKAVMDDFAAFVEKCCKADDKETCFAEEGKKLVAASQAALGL

[2] = biological target: T1, human serum albumin (HSA); assay: Steady-state fluorescence displacement of warfarin from HSA by CIT; type: binding; design: purchased Sigma-Aldrich; settings: warfarin 1 μM, HSA 3.5 μM, CIT 0.25–5.0 μM
[3] = biological target: T1, human serum albumin (HSA)
Description: Before ultrafiltration samples contained 1 μM CIT with or without HSA (1, 2.5 or 5 μM), while displacement of CIT by WAR (5 and 10 μM) or OTA (2.5 and 5 μM) was investigated in the presence of 1 μM CIT and 5 μM HSA. During ultrafiltration experiments Amicon Ultra-4 centrifugal filter units (with 10 kDa molecular weight cut-off value; from Merck Millipore, Darmstadt, Germany) were applied. In order to remove glycerol from the filters, filter units were washed with 3 mL water and 3 mL PBS. Thereafter, 2.5 mL of the samples were transferred into the filter and Amicon tubes were centrifuged at 7500 g for 10 min at 25 °C (in Hettich Universal 32R centrifuge with fixed-angle rotor). Then 2 mL quantity of filtrate was transferred into 5-mL Eppendorf tube, after which 10 μL 6 M HCl solution was added to the sample in order to adjust the pH (to approximately 2). […] Final CIT concentrations were determined (applying calibration curve at concentration range 0.1–2.0 μM) by Hitachi F-4500 fluorescence spectrophotometer with the measurement of the fluorescence signal of CIT itself, using 330 nm and 500 nm as excitation and emission wavelengths, respectively.

[4] = biological target: T1, human serum albumin (HSA); assay: Fluorescence quenching of albumin by CIT, binding constant and van't Hoff thermodynamics; design: purchased Sigma-Aldrich
Description: (§1) A Fluorolog τ3 spectrofluorometric system (Jobin-Yvon/SPEX) and Hitachi F-4500 fluorescence spectrophotometer were used for steady-state fluorescence and fluorescence polarization measurements. All analyses were performed at +25 °C except thermodynamic studies.
Binding constants (K) were determined using fluorescence quenching method, where increasing CIT concentrations (0–5 μM) were added to standard amount of albumin (2 μM). […] Similarly to our previous studies, K values of CIT-albumin complexes were quantified by non-linear fitting with Hyperquad2006 program package (Protonic Software) assuming 1:1 stoichiometry: (1) I=I0+IAC−I0/2[A]0([A]0+[C]0+1/K−([A]0+[C]0+1/K)^2−4[A]0[C]0) where I denotes the fluorescence emission intensity of albumin in presence of CIT; I0 denotes the fluorescence emission intensity of albumin in absence of CIT; IAC denotes the fluorescence emission intensity of pure albumin-CIT complex (which is calculated by the Hyperquad2006 software); K denotes the binding constant; while [A]0 and [C]0 denote the total concentrations of albumin and CIT, respectively.
To get deeper insight into the formation of CIT-HSA complex, quenching experiments were also performed at different temperatures (25, 30, 35, and 40 °C). Thermodynamic parameters were quantified applying the van’t Hoff equation: (2) lnK=−ΔG/RT=−ΔH/RT+ΔS/R where ΔG is the Gibbs free energy change, ΔS is the entropy change, while ΔH is the enthalpy change associated with the complex formation.

[5] = biological target: T2, porcine serum albumin (PSA) (Sus scrofa, UniProt P08835); assay: Fluorescence quenching of albumin by CIT, binding constant; settings: PBS pH 7.4, 25 °C; read-out: logK (±SD) of CIT-PSA complex (converted)
T2 construct: purchased Sigma-Aldrich
T2 sequence (P08835 25-607): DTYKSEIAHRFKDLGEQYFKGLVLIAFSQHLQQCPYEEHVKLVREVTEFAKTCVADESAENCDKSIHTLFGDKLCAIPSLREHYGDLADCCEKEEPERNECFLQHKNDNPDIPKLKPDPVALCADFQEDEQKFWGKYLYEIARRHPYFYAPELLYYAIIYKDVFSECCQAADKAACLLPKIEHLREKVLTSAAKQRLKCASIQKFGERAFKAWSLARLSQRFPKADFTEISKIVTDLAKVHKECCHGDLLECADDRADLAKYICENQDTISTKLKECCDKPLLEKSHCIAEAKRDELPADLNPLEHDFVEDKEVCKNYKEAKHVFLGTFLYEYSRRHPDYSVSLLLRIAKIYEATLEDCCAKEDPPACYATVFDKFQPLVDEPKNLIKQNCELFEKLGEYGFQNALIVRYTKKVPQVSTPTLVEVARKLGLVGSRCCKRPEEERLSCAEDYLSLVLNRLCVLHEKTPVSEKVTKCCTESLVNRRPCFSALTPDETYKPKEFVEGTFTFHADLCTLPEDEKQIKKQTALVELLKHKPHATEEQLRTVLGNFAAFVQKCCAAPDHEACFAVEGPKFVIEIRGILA
Description: as §1
(§2) Binding constants (K) were determined using fluorescence quenching method, where increasing CIT concentrations (0–5 μM) were added to standard amount of albumin (2 μM). Fluorescence emission spectra were recorded in PBS buffer (pH 7.4; λexc = 280 nm). Similarly to our previous studies, K values of CIT-albumin complexes were quantified by non-linear fitting with Hyperquad2006 program package (Protonic Software) assuming 1:1 stoichiometry: (1) I=I0+IAC−I0/2[A]0([A]0+[C]0+1/K−([A]0+[C]0+1/K)^2−4[A]0[C]0) where I denotes the fluorescence emission intensity of albumin in presence of CIT; I0 denotes the fluorescence emission intensity of albumin in absence of CIT; IAC denotes the fluorescence emission intensity of pure albumin-CIT complex (which is calculated by the Hyperquad2006 software); K denotes the binding constant; while [A]0 and [C]0 denote the total concentrations of albumin and CIT, respectively.

[6] = biological target: T3, bovine serum albumin (BSA) (Bos taurus, UniProt P02769); assay: as above; settings: PBS pH 7.4, 25 °C; read-out: logK (±SD) of CIT-BSA complex (converted)
T3 construct: purchased Sigma-Aldrich
T3 sequence (P02769 25-607): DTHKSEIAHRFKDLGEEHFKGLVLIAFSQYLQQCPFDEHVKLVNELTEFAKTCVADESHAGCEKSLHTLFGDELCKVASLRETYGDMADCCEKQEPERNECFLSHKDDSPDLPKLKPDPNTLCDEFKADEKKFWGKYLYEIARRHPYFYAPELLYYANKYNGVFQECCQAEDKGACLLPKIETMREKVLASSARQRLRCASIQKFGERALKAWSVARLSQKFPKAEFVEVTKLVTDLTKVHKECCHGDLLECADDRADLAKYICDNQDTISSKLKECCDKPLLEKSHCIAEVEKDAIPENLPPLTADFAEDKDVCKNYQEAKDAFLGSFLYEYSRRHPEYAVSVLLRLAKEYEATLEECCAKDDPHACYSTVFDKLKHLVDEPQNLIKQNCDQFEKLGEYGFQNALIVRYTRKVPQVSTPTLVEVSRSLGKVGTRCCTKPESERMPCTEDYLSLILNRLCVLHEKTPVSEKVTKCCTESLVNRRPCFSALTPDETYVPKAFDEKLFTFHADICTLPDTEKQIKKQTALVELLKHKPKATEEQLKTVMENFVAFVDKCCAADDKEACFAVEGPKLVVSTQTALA
Description: as §1, §2

rat serum albumin (RSA) = biological target: T4, rat serum albumin (RSA) (Rattus norvegicus, UniProt P02770); assay: as above; settings: PBS pH 7.4, 25 °C; read-out: logK (±SD) of CIT-RSA complex (converted)
T4 construct: purchased Sigma-Aldrich
T4 sequence (P02770 25-608): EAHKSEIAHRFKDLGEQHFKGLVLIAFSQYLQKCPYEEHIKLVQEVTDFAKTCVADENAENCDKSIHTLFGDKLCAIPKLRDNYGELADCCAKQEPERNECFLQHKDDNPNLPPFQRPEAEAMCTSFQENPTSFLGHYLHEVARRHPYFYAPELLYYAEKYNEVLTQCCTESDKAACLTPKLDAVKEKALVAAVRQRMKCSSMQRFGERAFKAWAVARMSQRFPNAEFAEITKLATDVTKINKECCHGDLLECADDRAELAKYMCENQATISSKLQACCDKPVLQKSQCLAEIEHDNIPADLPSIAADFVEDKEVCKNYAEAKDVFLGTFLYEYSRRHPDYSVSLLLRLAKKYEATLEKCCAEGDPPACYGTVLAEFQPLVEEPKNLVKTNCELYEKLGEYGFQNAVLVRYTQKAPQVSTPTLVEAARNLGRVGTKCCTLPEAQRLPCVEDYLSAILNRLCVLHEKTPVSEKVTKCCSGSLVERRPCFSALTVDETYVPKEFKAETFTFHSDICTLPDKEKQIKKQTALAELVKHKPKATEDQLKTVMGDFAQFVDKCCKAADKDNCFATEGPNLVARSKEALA
Description: as §1, §2

[7] = biological target: T1, human serum albumin (HSA); settings: cited from earlier work
[8] = van't Hoff, 25-40 °C quenching data

CC1=C2C(=CO[C@H](C)[C@H]2C)C(O)=C(C(=O)O)C1=O [CIT, Citrinin]
CIT-induced viability loss in presence of FBS (MDCK cells; 100 μM CIT + 10% FBS): considerably alleviated | CIT-induced viability loss in presence of HSA (MDCK cells; 100 μM CIT + 40 g/L HSA): considerably alleviated | decrease of cell viability (MDCK cells; 100 μM CIT, absence of FBS): approximately 50% | fluorescence polarization of OTA (displacement of OTA) [1]: decrease of fluorescence polarization of OTA in a concentration dependent fashion | fluorescence intensity of HSA-bound warfarin (displacement of warfarin) [2]: significant decrease | CIT in the filtrate in presence of HSA ([3]; 1 μM CIT, HSA 1, 2.5 and 5 μM, 10 kDa cut-off): significant decrease | Kd ([4]; PBS pH 6.0, 25 °C, read-out: logK of CIT-HSA complex (converted)): 5.62 µM | Kd ([4]; PBS pH 7.0, 25 °C, read-out: logK of CIT-HSA complex (converted)): 5.25 µM | Kd ([4]; PBS pH 7.4, 25 °C, read-out: logK (±SD) of CIT-HSA complex (converted)): 4.79 µM | Kd ([4]; PBS pH 7.4, 30 °C, read-out: logK (±SD) of CIT-HSA complex (converted)): 5.5 µM | Kd ([4]; PBS pH 7.4, 35 °C, read-out: logK (±SD) of CIT-HSA complex (converted)): 6.46 µM | Kd ([4]; PBS pH 7.4, 40 °C, read-out: logK (±SD) of CIT-HSA complex (converted)): 7.76 µM | Kd ([4]; PBS pH 7.8, 25 °C, read-out: logK of CIT-HSA complex (converted)): 7.59 µM | ∆H of CIT-HSA complex formation [4, 8]: -5.772 kcal/mol | ∆S of CIT-HSA complex formation [4, 8]: +20.90 J·mol^−1·K^−1 | Kd [5]: 11 µM | Kd [6]: 8.91 µM | Kd (rat serum albumin (RSA)): 3.16 µM

C[C@@H]1Cc2c(Cl)cc(C(=O)N[C@@H](Cc3ccccc3)C(=O)O)c(O)c2C(=O)O1 [OTA, ochratoxin A]
logK of OTA-HSA complex ([7]; 25 °C): 7.4–7.6 | complex stability with HSA compared to BSA ([7]; HSA vs BSA): 15 fold | complex stability with HSA compared to RSA ([7]; HSA vs RSA): 30 fold | displacement of CIT from HSA ([3]; 1 μM CIT + 5 μM HSA, 5 μM OTA): almost complete displacement | change of CIT concentration in the filtrate caused by the competitor ([3]; 1 μM CIT + 5 μM HSA, warfarin or ibuprofen 5 or 10 μM, OTA 2.5 and 5 μM): significant elevation
